Measured values taken from patent publication US20110152218A1, “CRYSTALLINE PHOSPHOLIPID, METHOD FOR ITS PRODUCTION AND USE IN TREATING DAMAGED TISSUE” (priority 2008, published 2011).
“Also recorded” adds a separate entry of the source.

Legend:
Format in all cases: cell-based, rabbit
[1] = tested on: tendon core cells (endotenon); assay: WST-1 proliferation assay, tendon core cells
Method: (§1) Therefore all three-cell types were established and cultured as separate cell strains.
(§2) Tendon derived fibroblasts were cultured in Dulbecco's Modified Eagles Medium (DMEM) with 10% fetal calf serum, 2 mM glutamine, 100 U/ml penicillin and […] streptomycin (NGM).
(§3) A 5 mg/ml solution of the phospholipid prepared according to Example 1 and referred to in this example as “Pumactant” was dissolved in serum free media in a sterile 100 ml bottle incubated at 37° C. and then diluted further to a concentration of 1 mg/ml.
(§4) Fibroblasts derived from tendons were seeded at 5×10^3/well into a 96 microtitre plate (Greiner) and allowed to attach overnight in minimum media (DMEM supplemented with 0.4% FCS) to maintain cells in a healthy but quiescent state. After 24 hrs, the media was aspirated and replaced by test media (minimum media with concentrations of pumactant; or different concentrations of fetal calf serum; or different concentrations of TGF-β1) and cultured for 24, 48 and 72 hours. Cell number was assessed using WST-1 assay (Roche Products Ltd). Test media was removed and the wells washed twice with minimal media, minimal media was replaced and 10 μl WST-1 solution was added to each well. The cells were incubated for 1 hour in standard tissue culture conditions. The absorbance, which related to the number of viable cells converting the reagent to coloured formazan crystals, was read at 450 nm on a Bio-Rad Plate reader. Experiments were performed in triplicate for each cell strain.

[2] = tested on: collagen type I, collagen type III, fibronectin, PAI-1, tPA gene transcription in sheath derived cells; assay: QRT-PCR gene transcription, sheath derived cells; settings: time course, pumactant 1 mg/ml or TGF-β1, n=3
Method: (§5) Cells were placed in serum free media for 24 hrs prior to stimulation with pumactant or TGF-β1; viability was assessed using Trypan blue (Sigma; data not shown). Quiescent cells were treated with pumactant (1 mg/ml) for 0-24 hrs or TGF-β1 for 0-24 h ours (positive control). Total RNA was isolated from treated and untreated samples using Trizol (Gibco). Quant-iT™ Ribogreen® RNA kit (Invitrogen) was used to determine RNA concentration. First strand cDNA was synthesized using the StrataScript® first-strand synthesis system (Stratagene™) with oligonucleotide dTs (0.5 μg/μl) according to manufacturer's instructions.
(§6) Two μl of the first strand cDNA product was used for amplification in triplicate in a 25 μl reaction solution containing 12.5 μl of SYBR Green PCR Master Mix (Stratagene™, La Jolla, Calif.) and 10 pM of each primer as per manufacturer's instructions. Primer sequences are identified in Table 1. The primer sequences are also listed in the sequence listing which is attached to the specification of the present application and made a part thereof.
(§7) The PCR reaction was performed on a MX3000P (Stratagene, La Jolla, Calif.). The PCR program consisted of an initial denaturation where the reaction was incubated for 10 min at 95° C., the second step the DNA was amplified for 40 cycles of 30 sec at 95° C. annealing of primers for 1 min at 60° C. and an extension at 72° C. for 30 sec. Dissociation curve was performed to ensure no primer-dimers were present at the end of each PCR run.
(§8) The relative expression software tool (REST©) was used for the calculation of relative expression levels in real-time PCR (Pfaffl et al, 2002). This mathematical model is based on the PCR efficiencies and the mean crossing point deviation between the treated and untreated cells. The target gene expression was normalized with two housekeeping genes: GAPDH and ACTB. Statistical analysis of group differences was performed by Pair Wise Fixed Reallocation Randomization Test©, implemented in the REST-XL software (Pfaffl et al, 2002) and the coefficient of variance was given. Sigma Plot was used to illustrate the logarithmic graphs.

[3] = tested on: cells derived from the tendon sheath; assay: WST-1 proliferation assay, tendon sheath cells
Method: as §1, §2, §3, §4

[4] = tested on: collagen type I, collagen type III, fibronectin, PAI-1, tPA gene transcription in surface derived cells; assay: QRT-PCR gene transcription, surface derived cells; settings: time course
Method: as §5, §6, §7, §8

[5] = tested on: collagen type I, collagen type III, fibronectin, PAI-1, tPA gene transcription in core derived cells; assay: QRT-PCR gene transcription, core derived cells; settings: 48-hour time course, pumactant 1 mg/ml or TGF-β1 2 ng/ml, n=3
Method: as §5, with “Quiescent cells were treated with pumactant (1 mg/ml) for 0-24 hrs or TGF-β1 for 0-24 h ours (positive control).” left out
as §6, §7, §8

[6] = tested on: cells derived from the surface of the tendon (epitenon); assay: WST-1 proliferation assay, tendon surface cells
Method: as §1, §2, §3, §4

[7] = pumactant 1 mg/ml or TGF-β1, n=3

TGF-β1: growth factor used as positive control
proliferation of core cells ([1]; 24 hours, over the tested concentrations, FIG. 25): no statistical increase in proliferation | proliferation of core cells ([1]; 48 hours, various concentrations): no statistical significance | proliferation of core cells ([1]; 72 hours, any concentration, FIG. 27): no statistical significance | PAI-1 gene transcription [2]: no statistical changes over the whole time course | collagen type I gene transcription [2]: up regulate of Collagen type I gene transcription over the time course though this did not reach statistical significance | collagen type III gene transcription [2]: up regulation, which was statistically significant at 6 hours, 8 hours (p=0.03; FIG. 30), 16 and 24 hours; also recorded: statistically significant up regulation at 6 hrs (*p=0.03), 8 hrs (*p=0.037), 16 hrs (*p=0.012) and 24 hrs | fibronectin gene transcription [2]: no statistical changes over the whole time course | tPA gene transcription [2]: down regulation of gene transcription which was statistically significant at 2 hrs (p=0.013), 4 hours and 24 hours; also recorded: statistically significant down regulation at 2 hrs (*p=0.013), 4 hrs (*p=0.001) and 24 hrs | cell number of sheath cells compared to control media ([3]; 24 hours, the other / various concentrations): no statistical significance; also recorded: no statistical changes in cell number | proliferation of sheath cells ([3]; 48 hours, any concentration): no statistical significance for any concentration | proliferation of sheath cells ([3]; 72 hours, 0.5 ng/ml of TGF-β1): statistical significant increase | PAI-1 gene transcription [4, 7]: up regulation in response to TGF-β1, which was statistically significant at 24 hours for fibronectin (p=0.03) and 4 hours for PAI-1 | collagen type III gene transcription [4, 7]: statistically significant down regulation at 1 hrs (*p=0.036), 2 hrs (*p=0.001), 6 hrs (*p=0.038), 16 hrs and 48 hrs | fibronectin gene transcription [4, 7]: up regulation in response to TGF-β1, which was statistically significant at 24 hours for fibronectin | collagen type I gene transcription ([4]; pumactant 1 mg/ml or TGF-β1, vs untreated, normalized with GAPDH and ACTB, n=3): up regulation of Collagen type I gene transcription which was statistically significant at 24 and 48 hours; also recorded: statistically significant up regulation at 24 hours (*p=0.025) and 48 hours | PAI-1 gene transcription [5]: up regulation of gene transcription at 2 and 4 hours but this was only statistically significant at 2 hours; also recorded: statistically significant increase at 2 hrs | collagen type I gene transcription [5]: no statistical change | collagen type III gene transcription [5]: statistically significant down regulation in the early stages of the time course 2, 6 and 8 hours; also recorded: statistically significant down regulation at 2, 6 and 8 hours | fibronectin gene transcription [5]: at 6 h a statistically significant down regulation (p=0.024), which was later, reversed with a statistically significant up regulation at 24 and 48 hours; also recorded: significant down regulation of fibronectin gene transcription at 6 hours (*p=0.024) and a statistically significant up-regulation at 24 hrs (*p=0.03) and 48 hrs | tPA gene transcription [5]: statistically significant down regulation in gene transcription at 1, 2, 6, 8 and 24 hrs 0.01) and 16 hours | proliferation of surface cells ([6]; 24 hours, over the tested concentrations): no statistical significant difference at any concentration | proliferation of surface cells ([6]; 48 hours, various concentrations of TGF-β1): No concentrations of TGF-β1 showed any statistical increase; also recorded: no statistical significance | proliferation of surface cells compared to minimal media ([6]; 72 hours, 2 ng/ml of TGF-β1, FIG. 24C): statistically significant increase in proliferation; also recorded: increase was identified at 2 ng/ml
